# Laboratory results as given in publication PMC8264131 (Frontiers in Pharmacology, 2021).
# Like-named read-outs stand apart in the source and are kept apart here.
# Legend:
# [1] = cited from earlier work
# [2] = plasma protein binding in bovine plasma (ultrafiltration); conditions: bovine plasma from two cows, 2000 x g
# [3] = cited from earlier work; remark: listed apart in the source
# Source text: TABLE 2 Comparison of in vitro and in vivo clearance values.
# [4] = earlier publications, slightly higher bound fraction, (±3.0); ref PMC, 1972; cited from earlier work
# [5] = bovine blood in vitro hemodialysis model: hemofilter clearance; type: in vitro ADME; conditions: for Cl, in vitro clearance rate: ultrafiltration 0 ml/min, 37°C, corrected by hematocrit
# Method: Hemodialysis was simulated using a Fresenius 4008H dialysis machine. After priming of the extracorporeal circuit including the dialysis membrane with 0.9% saline solution, a reservoir bag containing 2 L of 37°C warm heparinized bovine blood (provided in cooperation with the University of Veterinary Medicine Vienna after seeking authorization by the institutional and governmental ethics committee, (ZI.04/04/972,013, GZ: 68.205/0240-WF/V/3b/2016) was connected to the circuit. The blood was kept at 37°C throughout the experiment. It was mixed with 2,000 IU of low molecular weight heparin directly during the blood draw as well as during the experiment itself with a rate of 500 IU per hour. After circuit connection, the investigated drug was added to the reservoir in order to mimic plasma levels previously described in trials ([Lanese et al., 1989]; [Thalhammer et al., 1997]; [Amin et al., 1999]). […] After priming the system with blood, it was allowed to run for 30 s to allow equilibration of blood hematocrit throughout the extracorporeal circuit before the baseline sample was drawn. Due to the reduced volume compared to in vivo and the comparably large hemofilter membrane area, a considerably faster drug concentration decline was expected. Thus, pre filter, post filter and ultrafiltrate samples were collected at the end of minutes 1, 5, 10, 15, 20, 30, 40 and 60 of the run. All samples were plasma separated by centrifugation at 2000 ×vg for 7 min and the supernatant stored at −80°C for analysis.
# An actual blood flow rate of 300 ml/min and a dialysate flow rate of 500 ml/min were kept as standard flow rates. Depending on previous literature, single drugs were run at different flow rates to allow external validation of the model. Ultrafiltration (corresponding to negative fluid balance/water removal during hemodialysis) was kept at 0 ml/min. […] Hemodialysation and hemofiltration experiments were performed with Baxter Gambro CAHP 170 diacetate devices, Nipro Sureflux 17UX and 21UX triacetate membranes as well as Fresenius Hemoflow F80s and FX 80 polysulphone membranes.
# The measured drug plasma concentrations were analyzed to calculate the area under the curve, hemofilter clearance and the drug saturation coefficient. As removal within the hemofilter is expected to be too fast for equilibration of drugs out of the erythrocyte compartment and drug concentrations were measured in the plasma, all clearance values were calculated with a hematocrit corrected formula, in which Hc is the blood hematocrit in percent divided by 100, BFR the actual blood flow rate, Cpre the drug concentration measured before the blood enters the filter and Cpost the drug concentration measured after the filter. Additionally the formula allows for correction of blood concentration by ultrafiltration (UFR). (1−Hc)×BFR×Cpre−(Cpost(BFR−UFR))/BFR/[…]
# Hematocrit corrected and not corrected clearance, total “body” clearance, volume of distribution, area under curve, elimination coefficient and half-life were evaluated for their correspondence to previously published in vivo values. Whenever previous publications declared the method of clearance calculation, the same formula was used. […] An empirical fitting of the in vitro PK curves and available in vivo PK curves was performed to gain an insight into the time relation between in vitro and in vivo.
# More recent historic data on intradialytic gentamicin clearance only exists for the Baxter CAHP-210 membrane ([Sowinski et al., 2008]) and the Fresenius F80s ([Amin et al., 1999]) which are both not available anymore. Baxter however was kind enough to supply us with several CAHP-170 and […] models. To extrapolate assumed clearance of a CAHP-210, we compared clearance gains between a Nipro Sureflux 17UX and a Sureflux 21UX membrane.
# [6] = membrane Fx80 (Fresenius high flux polysulphone, 1.8 m^2), BFR 300 ml/min, DFR 500 ml/min, bovine blood, mean, N = 12
molecule,measurement,setting,value
"CN[C@H](CC(C)C)C(=O)N[C@H]1C(=O)N[C@@H](CC(N)=O)C(=O)N[C@H]2C(=O)N[C@H]3C(=O)N[C@H](C(=O)N[C@H](C(=O)O)c4cc(O)cc(O)c4-c4cc3ccc4O)[C@H](O)c3ccc(c(Cl)c3)Oc3cc2cc(c3O[C@@H]2O[C@H](CO)[C@@H](O)[C@H](O)[C@H]2O[C@H]2C[C@](C)(N)[C@H](O)[C@H](C)O2)Oc2ccc(cc2Cl)[C@H]1O [Vancomycin, vancomycin]","plasma protein binding, Human","[1]; previously published value, ref Butterfield et al. (2011)",41.5%
same,"plasma protein binding, Bovine","[2]; Millipore Centrefree device, 1 ml aliquot, 10 min, Cobas VANC3 assay",43.6%
same,"Clin vivo, clearance as described in referenced publication","[3]; hemodialysis patients, membrane F60s, ref Lanese et al. (1989)",73.0 mL/min
same,"Clin vivo, clearance as described in referenced publication","[3]; hemodialysis patients, membrane F80s, ref Lanese et al. (1989)",85.2 mL/min
same,bound fraction,[4],54.8%
"CNC(C)C1CCC(N)C(OC2C(N)CC(N)C(OC3OCC(C)(O)C(NC)C3O)C2O)O1 (centres unmarked) [Gentamicin, gentamicin]","Cl, in vitro clearance rate","[5]; membrane CAHP-170 (Baxter cellulose diacetate, 1.7 m^2), BFR 400 ml/min, DFR 800 ml/min, bovine blood, mean, N = 16",90.12 mL/min
same,"Cl, in vitro clearance rate","[5]; membrane F80s (Fresenius high flux polysulphone, 1.8 m^2), BFR 300 ml/min, DFR 500 ml/min, bovine blood, mean, N = 12",122.37 mL/min
same,"Cl, in vitro clearance rate","[5]; membrane F80s (Fresenius high flux polysulphone, 1.8 m^2), BFR 400 ml/min, DFR 800 ml/min, bovine blood, mean, N = 12",137.62 mL/min
same,"Cl, in vitro clearance rate",[5]; [6],142.13 mL/min
same,"Cl, in vitro clearance rate","[5]; membrane Fx80 (Fresenius high flux polysulphone, 1.8 m^2), BFR 400 ml/min, DFR 800 ml/min, bovine blood, mean, N = 12",187.90 mL/min
same,"Cl, in vitro clearance rate","[5]; membrane SF17UX (Nipro cellulose triacetate, 1.7 m^2), BFR 400 ml/min, DFR 800 ml/min, bovine blood, mean, N = 12",160.75 mL/min
same,"Cl, in vitro clearance rate","[5]; membrane SF21E (Nipro Sureflux-21E medium-flux cellulose triacetate, 2.1 m^2), BFR 400 ml/min, DFR 800 ml/min, 2 L heparinized bovine blood, mean, N = 12",131.52 mL/min
same,"Cl, in vitro clearance rate","[5]; membrane SF21UX (Nipro cellulose triacetate, 2.1 m^2), BFR 400 ml/min, DFR 800 ml/min, bovine blood, mean, N = 17",178.25 mL/min
"C[C@@H](O)[C@H]1C(=O)N2C(C(=O)O)=C(S[C@@H]3CN[C@H](CNS(N)(=O)=O)C3)[C@H](C)[C@H]12 [Doripenem, doripenem]","plasma protein binding, Human",[1],8.0%
same,"Cl, in vitro clearance rate",[5]; [6],141.25 mL/min
same,"Cl, in vitro clearance rate","[5]; membrane SF21UX (Nipro cellulose triacetate, 2.1 m^2), BFR 300 ml/min, DFR 500 ml/min, bovine blood, mean, N = 12",155.76 mL/min
same,"plasma protein binding, Bovine","[2]; Centrisart I devices, 20 min, room temperature, HPLC",9.7%
same,"Clin vivo, clearance as described in referenced publication","[3]; human, in vivo",148.61 mL/min
teicoplanin,"Cl, in vitro clearance rate","[5]; membrane F60s (Fresenius polysulphone), BFR 250 ml/min, DFR 500 ml/min, bovine blood, mean, N = 16",25.50 mL/min
same,"Clin vitro, non hematocrit corrected clearance","[5]; membrane F60s, bovine blood in vitro hemodialysis, non hematocrit corrected, mean",38.95 mL/min
same,"Cl, in vitro clearance rate","[5]; membrane Fx80 (Fresenius polysulphone), BFR 250 ml/min, DFR 500 ml/min, bovine blood, mean, N = 12",43.49 mL/min
same,"clearance, simulation with Sureflux SF 21E triacetate dialyzer","[5]; membrane Sureflux SF 21E triacetate, bovine blood in vitro hemodialysis, flow rates not given",17.6 mL/min
same,"Clin vivo, non-hematocrit corrected clearance","[3]; human, in vivo",39.70 mL/min
